Drawing on patent publication US20100216779A1 (GLAXOSMITHKLINE LLC, priority 2007, published 2010), this text covers IC50 for 17 molecules.

Common to all, as to type: cell-based
In assay [1] the test system is NCI-H929 (multiple myeloma). Kind of assay: Inhibition of cell proliferation, CellTiter-Glo, NCI-H929. The conditions noted are these: Homo sapiens, 72 h. Put shortly: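 Cells were grown in medium with 10% FBS at 37° C, 5% CO2. Cell number was read as CellTiter-Glo luminescence (cellular ATP), with untreated wells as control.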
A further assay concerns COLO205 (colon). Kind of assay: Inhibition of cell proliferation, CellTiter-Glo, COLO205. The conditions noted are these: Homo sapiens, COLO 205, 72 h. Put shortly:
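Exponentially growing COLO205 cells in medium with 10% FBS were plated below 2000 cells/well at 37 °C, 5% CO2. Untreated wells served as controls.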
In general terms: Cellular ATP, detected with luciferase, serves as a proxy for viable cell number.

For assay [2], the target named is T1, IR (NIH-3T3 cells over expressing human IGF-1R or IR) (Homo sapiens, UniProt P06213).
T1 construct: expressed in transfected cells; host or cells: NIH-3T3 (mouse fibroblasts)
Kind of assay: IR cellular autophosphorylation (DELFIA). The conditions noted are these: NIH-3T3 cells over expressing IR, insulin stimulated. Put shortly: (§1)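 Read-out: DELFIA on lysates, receptor-specific capture antibody plus europium-labelled anti-phosphotyrosine, reported as % of IGF-1- or insulin-stimulated signal. Transfected NIH-3T3 cells got compound (30 uM–1.5 nM, 2 h) before a 15 min ligand pulse: IGF-1 30 ng/mL for IGF-1R, insulin 3 ug/mL for IR.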

In assay [3] the target is T2, human IGF-1R (NIH-3T3 cells over expressing human IGF-1R) (Homo sapiens, UniProt P08069).
T2 construct: expressed in transfected cells; host or cells: NIH-3T3 (mouse fibroblasts)
Kind of assay: IGF-1R cellular autophosphorylation (DELFIA). The settings on record: IGF-1 stimulated. Put shortly:
as §1

pIC50: −log10 of the molar value.

T1 sequence (P06213 28-1382): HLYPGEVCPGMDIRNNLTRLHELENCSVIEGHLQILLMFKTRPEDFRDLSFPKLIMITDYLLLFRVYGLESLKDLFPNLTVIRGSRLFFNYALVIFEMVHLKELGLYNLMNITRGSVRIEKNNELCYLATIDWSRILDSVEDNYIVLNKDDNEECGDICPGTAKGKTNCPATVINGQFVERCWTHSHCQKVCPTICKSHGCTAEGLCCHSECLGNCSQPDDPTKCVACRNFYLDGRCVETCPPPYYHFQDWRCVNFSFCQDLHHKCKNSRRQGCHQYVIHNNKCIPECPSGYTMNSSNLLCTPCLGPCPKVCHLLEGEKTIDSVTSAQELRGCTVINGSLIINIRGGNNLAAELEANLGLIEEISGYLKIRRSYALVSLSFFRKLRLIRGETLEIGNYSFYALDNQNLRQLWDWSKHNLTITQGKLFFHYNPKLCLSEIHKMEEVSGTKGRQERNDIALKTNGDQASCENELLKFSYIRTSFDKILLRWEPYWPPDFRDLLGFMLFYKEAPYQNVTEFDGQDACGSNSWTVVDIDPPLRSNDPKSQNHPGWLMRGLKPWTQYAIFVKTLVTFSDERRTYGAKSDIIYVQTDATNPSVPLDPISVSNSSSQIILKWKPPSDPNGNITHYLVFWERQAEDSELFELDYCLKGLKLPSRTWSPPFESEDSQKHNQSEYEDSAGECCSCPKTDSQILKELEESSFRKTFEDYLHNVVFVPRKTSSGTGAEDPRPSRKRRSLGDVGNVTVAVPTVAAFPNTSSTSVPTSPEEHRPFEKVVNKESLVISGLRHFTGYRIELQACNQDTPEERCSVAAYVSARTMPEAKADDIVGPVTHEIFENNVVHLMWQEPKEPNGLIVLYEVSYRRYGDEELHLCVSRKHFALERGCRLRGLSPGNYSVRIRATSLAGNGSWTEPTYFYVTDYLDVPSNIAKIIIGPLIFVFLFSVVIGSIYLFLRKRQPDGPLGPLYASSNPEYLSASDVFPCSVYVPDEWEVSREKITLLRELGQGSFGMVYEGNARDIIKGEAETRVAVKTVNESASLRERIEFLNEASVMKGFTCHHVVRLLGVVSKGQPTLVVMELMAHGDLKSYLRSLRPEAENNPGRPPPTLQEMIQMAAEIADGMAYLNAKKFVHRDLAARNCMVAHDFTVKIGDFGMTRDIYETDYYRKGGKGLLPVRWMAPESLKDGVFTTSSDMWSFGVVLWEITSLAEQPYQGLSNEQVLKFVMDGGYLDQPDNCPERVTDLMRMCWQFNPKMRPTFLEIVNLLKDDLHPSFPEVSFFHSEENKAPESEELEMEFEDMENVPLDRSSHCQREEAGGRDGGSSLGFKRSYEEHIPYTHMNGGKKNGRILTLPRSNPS
T2 sequence (P08069 31-1367): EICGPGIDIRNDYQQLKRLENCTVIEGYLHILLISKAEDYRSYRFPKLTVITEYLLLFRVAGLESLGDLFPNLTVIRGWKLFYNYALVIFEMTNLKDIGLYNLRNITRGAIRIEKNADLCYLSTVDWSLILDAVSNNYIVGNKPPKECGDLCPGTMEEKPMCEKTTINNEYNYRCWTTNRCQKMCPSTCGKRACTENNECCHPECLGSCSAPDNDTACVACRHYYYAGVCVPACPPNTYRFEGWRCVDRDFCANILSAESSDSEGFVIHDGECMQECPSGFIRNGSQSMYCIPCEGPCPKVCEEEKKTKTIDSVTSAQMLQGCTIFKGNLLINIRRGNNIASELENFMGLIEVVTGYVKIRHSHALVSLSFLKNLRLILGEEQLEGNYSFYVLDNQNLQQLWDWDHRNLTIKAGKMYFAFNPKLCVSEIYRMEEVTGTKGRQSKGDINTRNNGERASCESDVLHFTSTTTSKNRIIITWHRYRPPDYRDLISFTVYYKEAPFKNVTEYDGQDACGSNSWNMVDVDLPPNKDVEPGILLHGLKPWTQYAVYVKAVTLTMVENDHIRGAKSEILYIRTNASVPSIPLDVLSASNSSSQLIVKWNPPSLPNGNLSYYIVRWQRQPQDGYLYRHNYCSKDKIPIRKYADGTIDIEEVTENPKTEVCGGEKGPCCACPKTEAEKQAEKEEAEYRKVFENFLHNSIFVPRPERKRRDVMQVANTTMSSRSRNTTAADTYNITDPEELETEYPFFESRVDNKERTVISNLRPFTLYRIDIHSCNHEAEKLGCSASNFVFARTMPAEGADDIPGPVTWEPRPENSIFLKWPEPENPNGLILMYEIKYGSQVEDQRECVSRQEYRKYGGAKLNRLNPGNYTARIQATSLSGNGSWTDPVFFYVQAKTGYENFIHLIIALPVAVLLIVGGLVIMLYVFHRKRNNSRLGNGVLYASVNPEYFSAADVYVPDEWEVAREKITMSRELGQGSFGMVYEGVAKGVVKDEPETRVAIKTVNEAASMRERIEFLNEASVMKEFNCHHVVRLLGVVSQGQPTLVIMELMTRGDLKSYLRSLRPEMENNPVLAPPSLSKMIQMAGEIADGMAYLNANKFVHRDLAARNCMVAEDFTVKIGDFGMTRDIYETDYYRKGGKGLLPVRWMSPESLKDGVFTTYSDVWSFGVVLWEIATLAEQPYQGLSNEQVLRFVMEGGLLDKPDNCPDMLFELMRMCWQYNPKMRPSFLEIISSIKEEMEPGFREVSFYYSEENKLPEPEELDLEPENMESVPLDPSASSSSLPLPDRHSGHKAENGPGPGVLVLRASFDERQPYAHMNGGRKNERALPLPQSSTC

In general, pIC50 refers to −log10 of the IC50, conventionally taken in molar units. Read a low pIC50 as a large IC50. Take `CCN1CCN(C2CCN(c3ccc(Nc4nccc(-c5c(-c6cccc(C(=O)Nc7c(F)cccc7F)c6)nc6ccccn56)n4)c(OC)c3)CC2)CC1` [Example 64, N-(2,6-difluorophenyl)-3-[3-(2-{[4-[4-(4-ethyl-1-piperazinyl)-1-piperidinyl]-2-(methyloxy)phenyl]amino}-4-pyrimidinyl)imidazo[1,2-a]pyridin-2-yl]benzamide]: the pIC50 is more than 6.60 in assay [1], 6.00 to 6.60 in the assay on COLO205 (colon), more than 7.00 in assay [2] and 6.30 to 7.00 in assay [3].
For `COc1cc(N2CCC(N3CCC(CCS(C)(=O)=O)CC3)CC2)ccc1Nc1nccc(-c2c(-c3ccc(OC)c(C(=O)Nc4c(F)cccc4F)c3)nc3ccccn23)n1` [Example 102, N-(2,6-difluorophenyl)-2-(methyloxy)-5-(3-{2-[(2-(methyloxy)-4-{4-[2-(methylsulfonyl)ethyl]-1,4′-bipiperidin-1′-yl}phenyl)amino]-4-pyrimidinyl}imidazo[1,2-a]pyridin-2-yl)benzamide], in that order: more than 6.60, 6.00 to 6.60, more than 7.00 and more than 7.00.
`COc1cc(N2CCC(N3CCCCC3)CC2)ccc1Nc1nccc(-c2c(-c3cccc(C(=O)Nc4c(F)cccc4F)c3)nc3cc(F)ccn23)n1` [Example 195, 3-[3-(2-{[4-(1,4′-bipiperidin-1′-yl)-2-(methyloxy)phenyl]amino}-4-pyrimidinyl)-7-fluoroimidazo[1,2-a]pyridin-2-yl]-N-(2,6-difluorophenyl)benzamide]: the pIC50 in assay [1] was 6.00 to 6.60; in the assay on COLO205 (colon), 6.00 to 6.60; in assay [2] it was more than 7.00; in assay [3], more than 7.00.
Turning to `CCCN1CCC(c2ccc(Nc3nccc(-c4c(-c5ccc(OC)c(C(=O)Nc6c(F)cccc6F)c5)nc5ccccn45)n3)c(OC)c2)CC1` [Example 137, N-(2,6-difluorophenyl)-2-(methyloxy)-5-[3-(2-{[2-(methyloxy)-4-(1-propyl-4-piperidinyl)phenyl]amino}-4-pyrimidinyl)imidazo[1,2-a]pyridin-2-yl]benzamide], the pIC50 is more than 6.60 in assay [1], 6.00 to 6.60 in the assay on COLO205 (colon), more than 7.00 in assay [2] and more than 7.00 in assay [3].
`COc1cc(N2CCC(N3CCN(CCS(C)(=O)=O)CC3)CC2)ccc1Nc1nccc(-c2c(-c3cccc(C(=O)Nc4c(F)cccc4F)c3)nc3c(C)cccn23)n1` [Example 67, N-(2,6-difluorophenyl)-3-[8-methyl-3-(2-{[2-(methyloxy)-4-(4-{4-[2-(methylsulfonyl)ethyl)-1-piperazinyl}-1-piperidinyl)phenyl]amino]-4-pyrimidinyl)imidazo[1,2-a]pyridin-2-yl]benzamide]: the negative logarithm of the IC50 (pIC50) is 6.00 to 6.60 in assay [1], 6.00 to 6.60 in the assay with COLO205 (colon), 6.30 to 7.00 in assay [2] and more than 7.00 in assay [3].
As to `CCCc1cc(N2CCC(N3CCCCC3)CC2)ccc1Nc1nccc(-c2c(-c3cccc(C(=O)Nc4c(F)cccc4F)c3)nc3ccccn23)n1` [Example 41, 3-[3-(2-{[4-(1,4′-bipiperidin-1′-yl)-2-propylphenyl]amino}-4-pyrimidinyl)imidazo[1,2-a]pyridin-2-yl]-N-(2,6-difluorophenyl)benzamid], the pIC50 in assay [1] was 6.00 to 6.60; with COLO205 (colon) it was 6.00 to 6.60; in assay [2] it was 6.30 to 7.00; in assay [3] it was more than 7.00.
Regarding `COc1cc(C2CCN(C3CCN(CCF)CC3)CC2)ccc1Nc1nccc(-c2c(-c3cccc(C(=O)Nc4c(F)cccc4F)c3)nc3ccccn23)n1` [Example 100], the pIC50 in assay [1] is 6.00 to 6.60; in the assay with COLO205 (colon), 6.00 to 6.60; in assay [2] it was more than 7.00; in assay [3] it was more than 7.00.
Turning to `COc1ccc(-c2nc3ccccn3c2-c2ccnc(Nc3ccc(N4CCC(N5CCCCC5)CC4)c(C)c3OC)n2)cc1C(=O)Nc1c(F)cccc1F` [Example 55, 5-[3-(2-{[4-(1,4′-bipiperidin-1′-yl)-3-methyl-2-(methyloxy)phenyl]amino}-4-pyrimidinyl)imidazo[1,2-a]pyridin-2-yl]-N-(2,6-difluorophenyl)-2-(methyloxy)benzamide], the negative logarithm of the IC50 (pIC50) in assay [1] was less than 6.00; in the assay on COLO205 (colon), less than 6.00; in assay [2], less than 6.30; in assay [3] it was 6.30 to 7.00.
Regarding `COc1cc(N2CCC(N3CCN(CCF)CC3)CC2)c(OC)cc1Nc1nccc(-c2c(-c3cccc(C(=O)Nc4c(F)cccc4F)c3)nc3ccccn23)n1` [Example 111, N-(2,6-difluorophenyl)-3-[3-(2-{[4-{4-[4-(2-fluoroethyl)-1-piperazinyl]-1-piperidinyl}-2,5-bis(methyloxy)phenyl]amino}-4-pyrimidinyl)imidazo[1,2-a]pyridin-2-yl]benzamide], the pIC50 was more than 6.60 in assay [1], 6.00 to 6.60 with COLO205 (colon), more than 7.00 in assay [2] and more than 7.00 in assay [3].
On to `COc1cc(N2CCC(N3CCN(S(C)(=O)=O)CC3)CC2)ccc1Nc1nccc(-c2c(-c3ccc(OC)c(C(=O)Nc4c(F)cccc4F)c3)nc3cc(F)ccn23)n1` [Example 199, N-(2,6-difluorophenyl)-5-(7-fluoro-3-{2-[(2-(methyloxy)-4-{4-[4-(methylsulfonyl)-1-piperazinyl]-1-piperidinyl}phenyl)amino]-4-pyrimidinyl}imidazo[1,2-a]pyridin-2-yl)-2-(methyloxy)benzamide], for which the pIC50 in assay [1] is more than 6.60; in the assay with COLO205 (colon) it was 6.00 to 6.60; in assay [2] it was more than 7.00; in assay [3], more than 7.00.
As for `COc1cc(N2CCC(N3CCN(S(C)(=O)=O)CC3)CC2)ccc1Nc1nccc(-c2c(-c3cccc(C(=O)Nc4c(F)cccc4F)c3)nc3c(F)cccn23)n1` [Example 192, N-(2,6-difluorophenyl)-3-(8-fluoro-3-{2-[(2-(methyloxy)-4-{4-[4-(methylsulfonyl)-1-piperazinyl]-1-piperidinyl}phenyl)amino]-4-pyrimidinyl}imidazo[1,2-a]pyridin-2-yl)benzamide], the pIC50 in assay [1] is 6.00 to 6.60; with COLO205 (colon) it was 6.00 to 6.60; in assay [2] it was 6.30 to 7.00; in assay [3], more than 7.00.
For `CCOc1cc(N2CCC(N3CCN(S(C)(=O)=O)CC3)CC2)ccc1Nc1nccc(-c2c(-c3cccc(C(=O)Nc4c(F)cccc4F)c3)nc3ccccn23)n1` [Example 224, N-(2,6-difluorophenyl)-3-(3-{2-[(2-(ethyloxy)-4-{4-[4-(methylsulfonyl)-1-piperazinyl]-1-piperidinyl}phenyl)amino]-4-pyrimidinyl}imidazo[1,2-a]pyridin-2-yl)benzamide], the negative-log IC50 (pIC50) in assay [1] was more than 6.60; with COLO205 (colon), 6.00 to 6.60; in assay [2] it was more than 7.00; in assay [3] it was more than 7.00.
In the case of `COc1cc(N2CCC(N3CCCCC3)CC2)c(OC)cc1Nc1nccc(-c2c(-c3cccc(C(=O)Nc4c(F)cccc4F)c3)nc3ccccn23)n1` [Example 110, 3-[3-(2-{[4-(1,4′-bipiperidin-1′-yl)-2,5-bis(methyloxy)phenyl]amino}-4-pyrimidinyl)imidazo[1,2-a]pyridin-2-yl]-N-(2,6-difluorophenyl)benzamide], the pIC50 was more than 6.60 in assay [1], 6.00 to 6.60 in the assay on COLO205 (colon), more than 7.00 in assay [2] and more than 7.00 in assay [3].
Regarding `COc1cc(N2CCN3CCOC[C@@H]3C2)ccc1Nc1nccc(-c2c(-c3cccc(C(=O)Nc4c(F)cccc4F)c3)nc3ccccn23)n1` [Example 123], the pIC50 in assay [1] is 6.00 to 6.60; in the assay with COLO205 (colon), 6.00 to 6.60; in assay [2] it was more than 7.00; in assay [3], 6.30 to 7.00.
Consider `CCOc1ccc(-c2nc3ccccn3c2-c2ccnc(Nc3ccc(N4CCN(C(C)C)CC4)cc3OC)n2)cc1C(=O)Nc1c(F)cccc1F` [Example 177, N-(2,6-difluorophenyl)-2-(ethyloxy)-5-[3-(2-{[4-[4-(1-methylethyl)-1-piperazinyl]-2-(methyloxy)phenyl]amino}-4-pyrimidinyl)imidazo[1,2-a]pyridin-2-yl]benzamide], for which the pIC50 is more than 6.60 in assay [1], 6.00 to 6.60 in the assay with COLO205 (colon), more than 7.00 in assay [2] and more than 7.00 in assay [3].
As to `COc1cc(N2CCN(CCS(C)(=O)=O)CC2)c(C)cc1Nc1nccc(-c2c(-c3cccc(C(=O)Nc4c(F)cccc4F)c3)nc3ccccn23)n1` [Example 148, N-(2,6-difluorophenyl)-3-(3-{2-[(5-methyl-2-(methyloxy)-4-{4-[2-(methylsulfonyl)ethyl]-1-piperazinyl}phenyl)amino]-4-pyrimidinyl}imidazo[1,2-a]pyridin-2-yl)benzamide], the pIC50 in assay [1] is more than 6.60; with COLO205 (colon) it was more than 6.60; in assay [2], more than 7.00; in assay [3], more than 7.00.
Turning to `CS(=O)(=O)CCN1CCN(C2CCN(c3ccc(Nc4nccc(-c5c(-c6cccc(C(=O)Nc7c(F)cccc7F)c6)nc6ccccn56)n4)c(OCC(F)(F)F)c3)CC2)CC1` [Example 120, N-(2,6-difluorophenyl)-3-{3-[2-({4-(4-{4-[2-(methylsulfonyl)ethyl]-1-piperazinyl}-1-piperidinyl)-2-[(2,2,2-trifluoroethyl)oxy]phenyl}amino)-4-pyrimidinyl]imidazo[1,2-a]pyridin-2-yl}benzamide], the pIC50 in assay [1] was more than 6.60; with COLO205 (colon), 6.00 to 6.60; in assay [2], more than 7.00; in assay [3], more than 7.00.
